Experimental data: ChEMBL document CHEMBL1201862, “PubChem BioAssay data set” (2004)
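Five concentrations, 48 hours, 96-well plates. The concentration for 50% growth inhibition is given as GI50.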 The source made the active and inactive calls. Rule as the data show it: active = GI50 up to about 1.1 µM and inactive = higher.

Legend:
Experiment in all cases: inhibition of tumour cell growth, NCI panel, 48 h
OVCAR-5 = test system: OVCAR-5
HL-60 = test system: HL-60
CCRF-CEM = test system: CCRF-CEM
NCI-H226 = test system: NCI-H226
SR = test system: SR
SK-MEL-28 = test system: SK-MEL-28
SNB-75 = test system: SNB-75
HT-29 = test system: HT-29
COLO 205 = test system: COLO 205
SK-MEL-5 = test system: SK-MEL-5
SW-620 = test system: SW-620
HCT-116 = test system: HCT-116
SN12C = test system: SN12C
DLD-1 = test system: DLD-1
SF-295 = test system: SF-295
OVCAR-8 = test system: OVCAR-8
M14 = test system: M14
HOP-62 = test system: HOP-62
RPMI-8226 = test system: RPMI-8226

| SMILES | GI50 (OVCAR-5) | GI50 (HL-60) | GI50 (CCRF-CEM) | GI50 (NCI-H226) | GI50 (SR) | GI50 (SK-MEL-28) | GI50 (SNB-75) | GI50 (HT-29) | GI50 (COLO 205) | GI50 (SK-MEL-5) | GI50 (SW-620) | GI50 (HCT-116) | GI50 (SN12C) | GI50 (DLD-1) | GI50 (SF-295) | GI50 (OVCAR-8) | GI50 (M14) | GI50 (HOP-62) | GI50 (RPMI-8226) |
| --- | --- | --- | --- | --- | --- | --- | --- | --- | --- | --- | --- | --- | --- | --- | --- | --- | --- | --- | --- |
| COC1=C(Br)C(=O)c2nc(C)ccc2C1=O | 20.4 µM (inactive) | 0.993 µM (active) | 0.871 µM (active) | 22.8 µM (inactive) | 3.56 µM (inactive) | 18.4 µM (inactive) | 19.2 µM (inactive) | 19.4 µM (inactive) | 12.1 µM (inactive) | 18.1 µM (inactive) | 8.15 µM (inactive) | 8.18 µM (inactive) | 15.7 µM (inactive) | 5.33 µM (inactive) | 20.4 µM (inactive) | 6.73 µM (inactive) | 15 µM (inactive) | > 44.6 µM (inactive) | – |
| Cc1ccc(C)c(NC(=O)CCc2nnc(S)[nH]2)c1 | > 100 µM (inactive) | – | > 100 µM (inactive) | > 100 µM (inactive) | 6.43 µM (inactive) | > 100 µM (inactive) | > 100 µM (inactive) | > 100 µM (inactive) | > 100 µM (inactive) | > 100 µM (inactive) | 17.4 µM (inactive) | 69.2 µM (inactive) | > 100 µM (inactive) | 54.1 µM (inactive) | > 100 µM (inactive) | > 100 µM (inactive) | > 100 µM (inactive) | > 100 µM (inactive) | > 100 µM (inactive) |
| Cc1cccc(C)c1NC(=O)C(=O)CC(=O)c1cccc([N+](=O)[O-])c1 | > 100 µM (inactive) | > 100 µM (inactive) | > 100 µM (inactive) | > 100 µM (inactive) | > 100 µM (inactive) | > 100 µM (inactive) | > 100 µM (inactive) | > 100 µM (inactive) | > 100 µM (inactive) | > 100 µM (inactive) | > 100 µM (inactive) | > 100 µM (inactive) | > 100 µM (inactive) | > 100 µM (inactive) | > 100 µM (inactive) | > 100 µM (inactive) | > 100 µM (inactive) | > 100 µM (inactive) | > 100 µM (inactive) |
| Cc1ccc(S(=O)(=O)c2ccc(NC(=O)SCCC(=O)O)cc2)cc1 | > 100 µM (inactive) | > 100 µM (inactive) | > 100 µM (inactive) | > 100 µM (inactive) | > 100 µM (inactive) | > 100 µM (inactive) | 17.8 µM (inactive) | > 100 µM (inactive) | > 100 µM (inactive) | – | > 100 µM (inactive) | > 100 µM (inactive) | > 100 µM (inactive) | > 100 µM (inactive) | > 100 µM (inactive) | > 100 µM (inactive) | > 100 µM (inactive) | > 100 µM (inactive) | > 100 µM (inactive) |
| NC(=S)N/N=C(\C(=O)Nc1cccc([N+](=O)[O-])c1)c1nc2ccc([N+](=O)[O-])cc2nc1O | > 100 µM (inactive) | 19.9 µM (inactive) | 34.8 µM (inactive) | > 100 µM (inactive) | – | > 100 µM (inactive) | > 100 µM (inactive) | > 100 µM (inactive) | > 100 µM (inactive) | 30.9 µM (inactive) | > 100 µM (inactive) | 58.5 µM (inactive) | – | 42 µM (inactive) | > 100 µM (inactive) | > 100 µM (inactive) | 88.9 µM (inactive) | 56.8 µM (inactive) | > 100 µM (inactive) |
| Cn1ncc2c(c1=O)Nc1ccccc1S2(=O)=O | > 100 µM (inactive) | – | 61.1 µM (inactive) | > 100 µM (inactive) | 51.3 µM (inactive) | > 100 µM (inactive) | > 100 µM (inactive) | > 100 µM (inactive) | 54.7 µM (inactive) | > 100 µM (inactive) | 10.8 µM (inactive) | 50 µM (inactive) | > 100 µM (inactive) | > 100 µM (inactive) | > 100 µM (inactive) | > 100 µM (inactive) | > 100 µM (inactive) | > 100 µM (inactive) | 53.8 µM (inactive) |
| Cc1ccc(C)c(N2C(=O)C(=O)C(c3nc4ccccc4s3)C(=O)C2=O)c1 | 71.8 µM (inactive) | > 100 µM (inactive) | > 100 µM (inactive) | > 100 µM (inactive) | – | > 100 µM (inactive) | > 100 µM (inactive) | > 100 µM (inactive) | > 100 µM (inactive) | > 100 µM (inactive) | > 100 µM (inactive) | > 100 µM (inactive) | > 100 µM (inactive) | > 100 µM (inactive) | > 100 µM (inactive) | > 100 µM (inactive) | > 100 µM (inactive) | > 100 µM (inactive) | > 100 µM (inactive) |
| COc1cc(C2C(C(=O)Nc3ccc([N+](=O)[O-])cc3)=C(C)NC(C)=C2C(=O)Nc2ccc([N+](=O)[O-])cc2)ccc1O | 35.6 µM (inactive) | 0.515 µM (active) | 30.3 µM (inactive) | 24.2 µM (inactive) | 5.07 µM (inactive) | 4.16 µM (inactive) | 30.5 µM (inactive) | 19.4 µM (inactive) | 16.4 µM (inactive) | 31.8 µM (inactive) | 21.6 µM (inactive) | 16 µM (inactive) | 18.4 µM (inactive) | 25.6 µM (inactive) | 24.7 µM (inactive) | 19.9 µM (inactive) | 23.9 µM (inactive) | 18.4 µM (inactive) | 24.3 µM (inactive) |
| Cc1ns/c(=N\C(=S)N(C)C)n1C | > 100 µM (inactive) | > 100 µM (inactive) | > 100 µM (inactive) | > 100 µM (inactive) | > 100 µM (inactive) | > 100 µM (inactive) | > 100 µM (inactive) | > 100 µM (inactive) | – | > 100 µM (inactive) | > 100 µM (inactive) | > 100 µM (inactive) | > 100 µM (inactive) | > 100 µM (inactive) | > 100 µM (inactive) | > 100 µM (inactive) | > 100 µM (inactive) | > 100 µM (inactive) | > 100 µM (inactive) |
| COc1ccc(S(=O)(=O)NNS(C)(=O)=O)cc1 | – | > 100 µM (inactive) | 70 µM (inactive) | > 100 µM (inactive) | > 100 µM (inactive) | – | > 100 µM (inactive) | > 100 µM (inactive) | > 100 µM (inactive) | > 100 µM (inactive) | > 100 µM (inactive) | > 100 µM (inactive) | > 100 µM (inactive) | 87.5 µM (inactive) | > 100 µM (inactive) | > 100 µM (inactive) | > 100 µM (inactive) | > 100 µM (inactive) | > 100 µM (inactive) |
| CNC(=S)OCCC(C)CCCC(C)C (stereo unspecified) | 11.3 µM (inactive) | 6.84 µM (inactive) | 19.4 µM (inactive) | – | 14 µM (inactive) | 24.7 µM (inactive) | 20.8 µM (inactive) | 17.3 µM (inactive) | – | 17.5 µM (inactive) | 16.6 µM (inactive) | 16.7 µM (inactive) | 16.3 µM (inactive) | 15.5 µM (inactive) | 21.5 µM (inactive) | 17.3 µM (inactive) | 18.6 µM (inactive) | 19.6 µM (inactive) | 10.8 µM (inactive) |
| CC(Oc1ccc2c(=O)cc(-c3ccccc3)oc2c1)C(=O)O (stereo unspecified) | – | > 100 µM (inactive) | > 100 µM (inactive) | > 100 µM (inactive) | > 100 µM (inactive) | > 100 µM (inactive) | > 100 µM (inactive) | > 100 µM (inactive) | > 100 µM (inactive) | > 100 µM (inactive) | > 100 µM (inactive) | > 100 µM (inactive) | > 100 µM (inactive) | > 100 µM (inactive) | > 100 µM (inactive) | > 100 µM (inactive) | > 100 µM (inactive) | > 100 µM (inactive) | – |
| Brc1ccc(/C=N/C23CC4CC(CC(C4)C2)C3)cc1 | > 100 µM (inactive) | > 100 µM (inactive) | > 100 µM (inactive) | > 100 µM (inactive) | – | > 100 µM (inactive) | > 100 µM (inactive) | > 100 µM (inactive) | > 100 µM (inactive) | > 100 µM (inactive) | > 100 µM (inactive) | > 100 µM (inactive) | > 100 µM (inactive) | > 100 µM (inactive) | > 100 µM (inactive) | > 100 µM (inactive) | > 100 µM (inactive) | > 100 µM (inactive) | > 100 µM (inactive) |
| COc1ccc(NC(=O)COC(=O)c2cccc3c(=O)c4ccccc4[nH]c23)cc1 | – | 13.1 µM (inactive) | 13.8 µM (inactive) | 23.1 µM (inactive) | 11.3 µM (inactive) | 30.8 µM (inactive) | 21 µM (inactive) | 16 µM (inactive) | 17.8 µM (inactive) | 15.3 µM (inactive) | 22.2 µM (inactive) | 12.9 µM (inactive) | 27.5 µM (inactive) | 13.9 µM (inactive) | 19.5 µM (inactive) | 22.4 µM (inactive) | 29.6 µM (inactive) | 23.8 µM (inactive) | – |
| Cn1cc(C(=O)NCCC(=N)N)cc1NC(=O)C1=[N+](C)C=C(NC(=O)c2cccc(C(=O)NC3=CC(C(=O)Nc4cc(C(=O)NCCC(=N)N)cn4C)=[N+](C)C3)c2)C1 | – | > 100 µM (inactive) | > 100 µM (inactive) | > 100 µM (inactive) | > 100 µM (inactive) | > 100 µM (inactive) | > 100 µM (inactive) | > 100 µM (inactive) | 50.7 µM (inactive) | 42.3 µM (inactive) | > 100 µM (inactive) | – | 88.5 µM (inactive) | > 100 µM (inactive) | > 100 µM (inactive) | > 100 µM (inactive) | > 100 µM (inactive) | > 100 µM (inactive) | > 100 µM (inactive) |
